We go through one compound from EPA's ToxValDB 9.5 (doi:10.2903/j.efsa.2010.1913).

The subject of one data set is Mus musculus. As to conditions: oral.
In the next data set the test system is Cyprinus carpio. As to conditions: acute; duration: 96 hours; mortality.
The test system of another data set is Apis mellifera. Conditions: acute; oral; unspecified; mortality.
The test system of the next data set is Daphnia magna. Conditions: chronic/long-term; duration: 21 days; reproduction.
In another data set the test system is Tagia sp. Conditions: acute; duration: 14 days; mortality.
The subject of the next data set is Colinus virginianus. Conditions: acute; oral; mortality.
The test system of another data set is Canidae. Conditions: oral, Dog Other, organ weight.
Another data set relates to Aphidius rhopalosiphi. Description: LR50; higher = less toxic. As to conditions: not reported; mortality.
The mark [1] stands for this setting: reproduction developmental, reproduction.

As to `CCNC(=O)[C@@H](C)OC(=O)Nc1ccccc1` [Carbetamide], the LD50 is 1720 mg/kg-day with Mus musculus (acute, mortality); over 2000 mg/kg-day in the data set with Rattus norvegicus (acute, oral, mortality); over 63.2 µg/piece in the data set with Apis mellifera; over 2000 mg/kg-day in the data set with Colinus virginianus. The NOEL with Mus musculus (chronic, duration: 104 weeks, histopathology: neoplastic) stood at 21 mg/kg-day. Further, the NOAEL in the data set with Rattus norvegicus (chronic, duration: 2 years, oral, histopathology: nonneoplastic) is 6 mg/kg-day; with Rattus norvegicus (setting [1]), 208 mg/kg-day; in the data set with Rattus norvegicus (subchronic, duration: 90 days, oral, histopathology: nonneoplastic) it was 12.5 mg/kg-day; in the data set with Canidae (chronic, duration: 1 years), 30 mg/kg-day; in the data set with Canidae (subchronic, duration: 90 days), 30 mg/kg-day. Also, the LC50 is over 1040 mg/kg-day with Coturnix japonica (acute, oral, diet, mortality); over 100 µg/mL with Cyprinus carpio; over 100 µg/mL in the data set with Oncorhynchus mykiss (acute, duration: 96 hours, mortality); 660 mg/kg in the data set on Tagia sp.. For the same compound, the NOEC with Coturnix japonica (setting [1]) is 169 mg/kg-day; in the data set with Daphnia magna, 1 mg/L; in the data set on Oncorhynchus mykiss (chronic/long-term, duration: 21 days, growth) it was over 100 mg/L. For the same compound, the LR50 with Aphidius rhopalosiphi is over 3020 g/ha.

The NOAEL is the highest tested level that showed no adverse finding.
